The text below walks through data of patent publication US20030096379A1, “Method for producing tryptamine derivatives” (priority 2001, published 2003).

In one assay the test system is TrpBA and TDC1. In words: Coupled enzyme synthesis monitored by HPLC. The class given is biochemical. To be noted: L-serine, PLP, pH 8.5 phosphate buffer, 37° C. On the procedure: To a solution containing L-serine (25 μmol), pyridoxal phosphate (0.05 μmol) and TrpBA (0.02 to 1.5 units, depending on the substrate), TDC1 (0.2 mL 0.6 units) and KPi buffer (0.05 mmol, pH 7.5) in a volume of 0.8 mL were added […] of 5 mM indole derivative in 20% v/v ethanol/water. The mixture was incubated at 37° C. and aliquots were quenched and analyzed as described for Example 8. In cases where tryptamine and/or tryptophan standards were not available, peaks were collected for mass spectral analysis. Electrospray mass spectral analyses were performed.
Mixtures containing indole, L-serine, PLP and TDC1 were incubated in pH 8.5 phosphate buffer, analyzing aliquots by HPLC, as described in Example 12.
The procedure used in Example 24 was carried out by substituting indole with 2-methylindole, 4-hydroxymethylindole, 5-methoxy-, 5-hydroxymethyl-, 5-methoxycarbonyl, and 5,6-dimethoxyindole.

The target in assay [1] is T1, pig kidney aromatic amino acid decarboxylase (pkAAAD) (Sus scrofa, UniProt P80041).
T1 construct: Frozen tissue was partially thawed in lysis buffer, then it was extracted and partially purified; from tissue; host or cells: pig kidney
T1 sequence (P80041 1-486): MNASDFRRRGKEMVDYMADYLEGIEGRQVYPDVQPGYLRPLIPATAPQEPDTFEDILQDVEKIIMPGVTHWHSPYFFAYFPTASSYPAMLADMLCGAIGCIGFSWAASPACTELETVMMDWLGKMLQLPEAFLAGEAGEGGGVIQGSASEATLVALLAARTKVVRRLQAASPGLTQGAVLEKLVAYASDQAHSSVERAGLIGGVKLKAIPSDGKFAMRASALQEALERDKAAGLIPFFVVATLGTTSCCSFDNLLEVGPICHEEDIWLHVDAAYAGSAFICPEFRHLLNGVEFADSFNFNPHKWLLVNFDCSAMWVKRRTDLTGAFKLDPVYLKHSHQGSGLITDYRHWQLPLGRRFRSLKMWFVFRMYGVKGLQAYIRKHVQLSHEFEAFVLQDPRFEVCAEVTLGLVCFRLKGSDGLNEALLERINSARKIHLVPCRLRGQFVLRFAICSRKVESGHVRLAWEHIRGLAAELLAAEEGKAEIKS
In words: Substrate screen for tryptophan decarboxylation, pkAAAD. The class given is biochemical. To be noted: tryptophan derivative, PLP, pH 7.5, 37° C. Details: key: +: a clear ninhydrin-positive spot at the Rf of standard tryptophan derivatives after 16-65 h; (+): a weak spot in the product region; −: no product observed; NR: experiment not run.

In assay [2] the target is T2, synAAAD (synthetic gene based on pkAAAD protein sequence) (Sus scrofa, UniProt P80041).
T2 construct: made in house; host or cells: E. coli (pET-15 vector)
T2 sequence (P80041 1-486): T1 sequence (P80041 1-486)
In words: Substrate screen for tryptophan decarboxylation, SynAAAD. The class given is biochemical. Also noted: key: +: a clear ninhydrin-positive spot at the Rf of standard tryptophan derivatives after 16-65 h; (+): a weak spot in the product region; −: no product observed; NR: experiment not run. To be noted: tryptophan derivative, PLP, pH 7.5, 37° C. How it is done: (§1) A mixture containing 1 μmole of the tryptophan derivative, 0.05 μmole of PLP and 50 μmol of L-serine in 40 mM pH 7.5 KPi buffer was warmed to 37° C., then enzyme solution was added to give a final volume of 1 mL. Aliquots (100 HL) were quenched at intervals and were evaporated in a Savant Speed-vac as in Example 6. For TLC analysis, CH2Cl2/EtOH/H2O/HOAc 49:49:1:1 was used as the solvent. The plates were visualized with short-wave UV light and ninhydrin as in Example 6.
(§2) HPLC techniques were used to monitor the decarboxylation of substituted tryptophans. Mass spectral analysis of the collected HPLC peaks was used to confirm the identity of several tryptamine derivatives, as shown in Table 5.

The target of assay [3] is T3, tryptophan decarboxylase TDC1 (Camptotheca acuminata, UniProt P93082).
T3 construct: made in house; host or cells: E. coli DH5α (pKK233 plasmid from C. Nessler)
T3 sequence (P93082 1-502): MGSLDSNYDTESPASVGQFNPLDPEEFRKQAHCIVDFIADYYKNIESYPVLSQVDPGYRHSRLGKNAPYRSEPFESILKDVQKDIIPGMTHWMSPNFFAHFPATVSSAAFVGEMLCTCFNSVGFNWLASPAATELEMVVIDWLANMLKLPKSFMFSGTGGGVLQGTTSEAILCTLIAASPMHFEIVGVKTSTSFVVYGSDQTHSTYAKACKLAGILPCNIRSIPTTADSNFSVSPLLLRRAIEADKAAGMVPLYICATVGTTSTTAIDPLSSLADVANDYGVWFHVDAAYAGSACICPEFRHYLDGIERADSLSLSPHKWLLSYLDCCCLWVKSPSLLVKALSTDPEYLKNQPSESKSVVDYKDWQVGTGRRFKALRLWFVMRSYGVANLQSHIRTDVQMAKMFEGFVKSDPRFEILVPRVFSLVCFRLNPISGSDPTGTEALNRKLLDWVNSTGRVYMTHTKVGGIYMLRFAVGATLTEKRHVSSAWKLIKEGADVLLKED
Put plainly: Substrate screen for tryptophan decarboxylation, TDC1. The class given is biochemical, C. accuminata. Also noted: key: +: a clear ninhydrin-positive spot at the Rf of standard tryptophan derivatives after 16-65 h; (+): a weak spot in the product region; −: no product observed; NR: experiment not run. To be noted: tryptophan derivative, PLP, pH 7.5, 37° C. On the procedure:
as §1, §2

In assay [4] the target is T4, tryptophan decarboxylase TDC2 (Camptotheca acuminata, UniProt P93083).
T4 construct: made in house; host or cells: E. coli DH5α (pKK233 plasmid from C. Nessler)
T4 sequence (P93083 1-498): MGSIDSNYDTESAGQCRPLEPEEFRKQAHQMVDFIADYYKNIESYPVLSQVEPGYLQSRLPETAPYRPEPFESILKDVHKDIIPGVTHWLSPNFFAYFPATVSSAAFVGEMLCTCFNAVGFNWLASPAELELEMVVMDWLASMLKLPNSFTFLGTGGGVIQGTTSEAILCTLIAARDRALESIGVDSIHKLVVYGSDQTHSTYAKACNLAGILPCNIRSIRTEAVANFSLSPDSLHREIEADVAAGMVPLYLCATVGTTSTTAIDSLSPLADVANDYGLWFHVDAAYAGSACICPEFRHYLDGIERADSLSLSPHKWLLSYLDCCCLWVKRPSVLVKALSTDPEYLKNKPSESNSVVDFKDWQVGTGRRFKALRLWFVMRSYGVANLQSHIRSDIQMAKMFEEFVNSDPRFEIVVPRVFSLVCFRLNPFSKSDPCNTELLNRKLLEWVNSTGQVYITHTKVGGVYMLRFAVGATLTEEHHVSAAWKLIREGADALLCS
In words: Substrate screen for tryptophan decarboxylation, TDC2. To be noted: tryptophan derivative, PLP, pH 7.5, 37° C. Type of assay: biochemical, C. accuminata. Details: key: +: a clear ninhydrin-positive spot at the Rf of standard tryptophan derivatives after 16-65 h; (+): a weak spot in the product region; −: no product observed; NR: experiment not run. How it is done:
as §1, §2

The next assay has as its target T5, TrpBA (Escherichia coli, UniProt P0A879).
T5 construct: made in house; host or cells: E. coli LMG194 (pBAD) or BL-21 (pET)
Put plainly: Relative rates of tryptophan derivative synthesis by HPLC, TrpBA. Type of assay: biochemical, E. coli. To be noted: initial rate estimated by HPLC, indole = 100%, L-serine. How it is done:
Reaction mixtures were prepared as in Example 6 and were incubated at 37° C. Aliquots (100 μL) were removed and quenched by addition of to 300 μL of 0.5 M sodium citrate, pH 3.0 in 10% v/v acetonitrile/water in 2 ml microcentrifuge tubes. Following centrifugation for 10 min at 13,000×g, the supernatants were passed through 0.45μ membrane filters prior to HPLC analysis of 20 μL of filtrate.
TnA reactions were run with L-serine as the 3-carbon substrate.

T5 sequence (P0A879 whole entry): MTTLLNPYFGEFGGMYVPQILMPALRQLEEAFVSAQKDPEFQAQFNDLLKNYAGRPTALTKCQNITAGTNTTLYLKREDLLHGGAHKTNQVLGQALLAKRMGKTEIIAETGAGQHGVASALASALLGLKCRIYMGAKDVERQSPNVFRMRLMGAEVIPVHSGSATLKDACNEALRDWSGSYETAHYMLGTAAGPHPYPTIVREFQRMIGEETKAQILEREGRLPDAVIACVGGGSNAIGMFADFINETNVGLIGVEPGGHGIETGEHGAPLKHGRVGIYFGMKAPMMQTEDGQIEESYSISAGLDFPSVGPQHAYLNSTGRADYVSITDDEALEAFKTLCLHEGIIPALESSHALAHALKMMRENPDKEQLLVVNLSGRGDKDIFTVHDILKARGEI
T5 sequence (P0A877 whole entry, further chain): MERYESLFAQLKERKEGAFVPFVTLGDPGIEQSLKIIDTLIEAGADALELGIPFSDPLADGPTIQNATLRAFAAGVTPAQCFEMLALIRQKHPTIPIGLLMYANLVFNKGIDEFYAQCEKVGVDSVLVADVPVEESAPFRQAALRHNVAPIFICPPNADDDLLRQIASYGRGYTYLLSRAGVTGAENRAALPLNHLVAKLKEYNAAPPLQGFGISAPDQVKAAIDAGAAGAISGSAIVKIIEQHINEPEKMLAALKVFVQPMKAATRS

For the compound “5-(Methoxycarbonylamino)indole [5-(methoxycarbonyl)amino-]”, the “formation of tryptophan derivative and tryptamine (HPLC peaks)” value with TrpBA and TDC1 was “a second peak representing formation of tryptamine”.
As for `NC(Cc1c[nH]c2cccc(F)c12)C(=O)O` (racemic) [DL-4-fluoro-trp], in assay [1], the “pkAAAD (decarboxylation substrate screen)” value (from here on “pkAAAD”) is listed as “+”. In addition, the “SynAAAD (decarboxylation substrate screen)” value (“SynAAAD” for short) in assay [2] is listed as “(+)”. In assay [3], the “TDC1 (decarboxylation substrate screen)” value was “+”. The “TDC2 (decarboxylation substrate screen)” value in assay [4] is reported as “+”.
Take `Cc1cccc2[nH]cc(CC(N)C(=O)O)c12` (racemic) [DL-4-methyl-trp]: in assay [1], the “pkAAAD” value is listed as “−”. The “SynAAAD” value in assay [2] is on record as “+”. In assay [3], the “TDC1 (decarboxylation substrate screen)” value was “+”. Besides, the “TDC2 (decarboxylation substrate screen)” value in assay [4] is “+”.
As to `NC(Cc1c[nH]c2ccc(F)cc12)C(=O)O` (racemic) [DL-5-fluoro-trp], the “pkAAAD” value in assay [1] is “−”. Also, the “SynAAAD” value in assay [2] is on record as “(+)”. Further, in assay [3], the “TDC1 (decarboxylation substrate screen)” value is reported as “+”. Besides, the “TDC2 (decarboxylation substrate screen)” value in assay [4] is recorded as “(+)”.
For the compound `Cc1ccc2[nH]cc(CC(N)C(=O)O)c2c1` (racemic) [DL-5-methyl-trp], the “pkAAAD” value in assay [1] is on record as “−”. Besides, in assay [2], the “SynAAAD” value is listed as “−”. In addition, in assay [3], the “TDC1 (decarboxylation substrate screen)” value was “+”. Moreover, in assay [4], the “TDC2 (decarboxylation substrate screen)” value was “+”.
In the case of `NC(Cc1c[nH]c2cc(F)ccc12)C(=O)O` (racemic) [DL-6-fluoro-trp], the “pkAAAD” value in assay [1] is recorded as “−”. For the same compound, the “SynAAAD” value in assay [2] was “−”. Besides, the “TDC1 (decarboxylation substrate screen)” value in assay [3] is “−”. Besides, in assay [4], the “TDC2 (decarboxylation substrate screen)” value is listed as “−”.
On to `Cc1ccc2c(CC(N)C(=O)O)c[nH]c2c1` (racemic) [DL-6-methyl-trp], for which, in assay [1], the “pkAAAD” value is listed as “−”. Besides, in assay [2], the “SynAAAD” value is “(+)”. The “TDC1 (decarboxylation substrate screen)” value in assay [3] is “+”. Further, in assay [4], the “TDC2 (decarboxylation substrate screen)” value is “+”.
For the compound `Cc1cccc2c(CC(N)C(=O)O)c[nH]c12` (racemic) [DL-7-methyl-trp], in assay [1], the “pkAAAD” value is given as “−”. Also, the “SynAAAD” value in assay [2] was “(+)”. Further, the “TDC1 (decarboxylation substrate screen)” value in assay [3] is on record as “+”. Further, the “TDC2 (decarboxylation substrate screen)” value in assay [4] is given as “+”.
In the case of `Cc1ccc2[nH]ccc2c1` [5CH3], the “Relative rate (TrpBA)” value on TrpBA was 0.55%.
With `N[C@@H](Cc1c[nH]c2cccc(CO)c12)C(=O)O` [L-4-(hydroxymethyl)-trp, 4-(Hydroxymethyl)-L-tryptophan], the “pkAAAD” value in assay [1] is recorded as “(+)”. In assay [2], the “SynAAAD” value is “+”. For the same compound, in assay [3], the “TDC1 (decarboxylation substrate screen)” value is “+”. In addition, the “TDC2 (decarboxylation substrate screen)” value in assay [4] is “+”.
Regarding `COC(=O)Nc1ccc2[nH]cc(C[C@H](N)C(=O)O)c2c1` [L-5-(methoxycarbonyl)-amino-trp, 5-(Methoxycarbonyl)amino-L-tryptophan], in assay [1], the “pkAAAD” value is “−”. In addition, the “SynAAAD” value in assay [2] was “+”. Besides, the “TDC1 (decarboxylation substrate screen)” value in assay [3] was “+”. Besides, the “TDC2 (decarboxylation substrate screen)” value in assay [4] is on record as “+”.
Take `N[C@@H](Cc1c[nH]c2ccc(O)cc12)C(=O)O` [L-5-hydroxy-trp, L-5-hydroxytryptophan, reference compound]: the “pkAAAD” value in assay [1] was “+”. In addition, the “SynAAAD” value in assay [2] was “+”. In assay [3], the “TDC1 (decarboxylation substrate screen)” value was “+”.
